Measurements reported in US20110009351A1, “SCREENING ASSAY TO IDENTIFY CORRECTORS OF PROTEIN TRAFFICKING DEFECTS” (Traffick Therepeutics Inc., priority 2007, published 2011).
Entries after “also recorded” stand apart in the source; their conditions may differ.

Experiments:
Format in all cases: cell-based
ΔF508-CFTR [1] = target: T1, ΔF508-CFTR (Homo sapiens, UniProt P13569, DEL508-508); design: which was then ligated into full length pNUT-CFTR linearized using Hpa1 and Pml1; expressed in transfected cells; conditions: for hit in screen (class letter) / hit in screen (score): Prestwick library, initial corrector assay; for hit in screen (class letter): BHK cells; for hit in screen (score): standard deviations above untreated controls
Procedure, shortened: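 BHK cells stably expressing 3HA-tagged ΔF508-CFTR (tags in fourth extracellular loop) treated with compound at 20 μM final for 24 h at 37° C. Surface ΔF508-CFTR measured on fixed, non-permeabilised cells by anti-HA/FITC immunofluorescence (488/510 nm), relative to untreated-well background; hits retested in duplicate, intrinsically fluorescent compounds excluded.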

F508del CFTR = target: T2, F508del CFTR (Homo sapiens, UniProt P13569, DEL508-508); experiment: YFP fluorescence quenching functional assay (iodide influx), HEK293 cells with F508del CFTR and halide sensitive YFP; conditions: 10 μM, 24 h; for % YFP quench: nc = 100% pc = 69.2
T2 construct: expressed in transfected cells; host or cells: HEK293 Griptite cells stably expressing F508del CFTR, transiently transfected with halide-sensitive eYFP
Procedure, shortened: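 HEK293 Griptite cells stably expressing F508del CFTR, transiently transfected with halide-sensitive eYFP, treated 24 h with 10 μM compound in triplicate, then stimulated 20 min with 25 μM forskolin, 45 μM IBMX and 50 μM genistein. YFP quench after 50 mM iodide imaged 15 times over 40 s on 150-300 cells/well.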

ΔF508-CFTR [2] = target: T1, ΔF508-CFTR; experiment: short-circuit current (Isc) across CFBE41o− monolayers in Ussing chambers; design: expressed in transfected cells; host or cells: CFBE41o- (ΔF508/ΔF508) transduced with ΔF508-CFTR, TranzVector lentivirus, provided by J. P. Clancy; conditions: 10 μM, 24 h
Method: Short-circuit current (Isc) was measured across monolayers in modified Ussing chambers. 1×10^6 CFBE41o^− cells were seeded onto 12-mm fibronectin-coated Snapwell inserts (Corning Incorporated, Life Sciences, New-York, N.Y.) and the apical medium was removed after 24 h. Transepithelial resistance was monitored using an EVOM epithelial voltohmmeter (World Precision Instruments, Sarasota, Fla.) and cells were used when the transepithelial resistance was 300-400 ohms·cm^2. In some experiments, F508del-CFBE41o^− monolayers were incubated at 29° C. or treated with glafenine at 37° C. for 24 h before being mounted in EasyMount chambers and voltage clamped using a VCCMC6 multichannel current-voltage clamp (Physiologic Instruments, San Diego, Calif.). The apical membrane conductance was functionally isolated by permeabilizing the basolateral membrane with 200 μg/ml nystatin and imposing an apical-to-basolateral Cl^− gradient. For these experiments the basolateral bathing solution contained (in mM) 1.2 NaCl, 115 Na-gluconate, 25 NaHCO3, 1.2 MgCl2, 4 CaCl2, 2.4, KH2PO4, 1.24 K2HPO4, 10 glucose (pH 7.4 with NaOH). The CaCl2 concentration was increased to 4 mM to compensate for the chelation of calcium by gluconate. The apical bathing solution contained (in mM) 115 NaCl, 25 NaHCO3, 1.2 MgCl2, 1.2 CaCl2, 2.4 KH2PO4, 1.24 K2HPO4, 10 mannitol (pH 7.4 with NaOH). […]

ΔF508-CFTR [3] = target: T1, ΔF508-CFTR; experiment: immunoblot and densitometry of mature band C, BHK cells expressing ΔF508-CFTR; design: which was then ligated into full length pNUT-CFTR linearized using Hpa1 and Pml1; expressed in transfected cells; conditions: after sildenafil treatment
Method: Cell lysates were quantitated by Bradford assay (BioRad) and separated by SDS-PAGE (6% polyacrylamide gels) and analyzed by Western blotting. Western blots were blocked using 5% skimmed milk in PBS, then probed overnight at 4° C. with a primary anti-CFTR antibody at a dilution of 1:1000 monoclonal mouse antibody (clone M3A7, Chemicon). The blots were washed four times in PBS before the addition of the secondary HRP-conjugated anti-mouse antibody, at a dilution of 1:5000 (Amersham) for one hour at room temperature. The blots were washed five times in PBS and probed for chemiluminescence (Pierce). All samples were run with equal protein loading as determined using the Bradford assay (Biorad). Densitometry of the immunoblots was performed using the ImageJ program (National Institutes of Health).
Total protein was quantified in cell lysates using the Bradford assay (BioRad, Hercules, Calif.), separated using SDS-PAGE (6% polyacrylamide gels), and analyzed by Western blotting as described previously (Robert et al., 2007). Western blots were blocked with 5% skimmed milk in PBS and probed overnight at 4° C. with a monoclonal primary anti-CFTR antibody (clone M3A7, Chemicon, Temecula, Calif.) diluted 1:1000. The blots were washed four times in PBS before adding the secondary HRP-conjugated anti-mouse antibody at a dilution of 1:5000 (Amersham, Piscataway, N.J.) for one hour at room temperature, then washed again five times in PBS and visualized using chemiluminescence (Pierce, Rockford, Ill.). The relative intensity of each CFTR glycoform (band B or band C) was estimated by densitometry using the ImageJ software and reported as a percentage of the total CFTR in the same lane (i.e. B+C).

ΔF508-CFTR [4] = target: T1, ΔF508-CFTR; experiment: iodide efflux assay in CFBE41o− airway epithelial cells; design: expressed in transfected cells; host or cells: CFBE41o- (ΔF508/ΔF508) transduced with ΔF508-CFTR, TranzVector lentivirus, provided by J. P. Clancy; conditions: 10 μM pretreatment
Method: Experiments were performed by hand or with a robotic liquid handling system (BioRobot 8000, Qiagen, USA) using Qiagen 4.1 software. Cells were cultured in 24-well plates until they reached confluence in order to perform parallel experiments and comparison analysis. After treatment (or not) with a test compound, medium in each well was replaced with 1 ml of iodide loading buffer (in mM: 136 NaI, 3 KNO3, 2 Ca(NO3)2, 11 glucose and 20 Hepes pH 7.4) for 1 hour at 37° C. to permit the I′ to reach equilibrium. […] The loss of intracellular I^− was determined by removing the medium and replacing it with fresh efflux buffer every 1 min for up to 11 min. […] The iodide concentration of each aliquot was determined using an iodide-sensitive electrode (Orion Research Inc., Boston, Mass., USA or Ecomet) and converted to iodide content (i.e. the amount of iodide released during the 1 min interval). […]
Iodide effluxes were performed using a robotic liquid handling system (BioRobot 8000, Qiagen, Valencia, Calif.) and Qiagen 4.1 software. […] Efflux was measured by replacing the medium with 300 μl fresh efflux buffer at 1 min intervals for up to 11 min. […] Iodide concentration was measured in each aliquot (300 μl) using an iodide-sensitive electrode (Orion Research Inc., Boston, Mass.). […]

ΔF508-CFTR [5] = target: T1, ΔF508-CFTR; experiment: iodide efflux assay in BHK cells expressing ΔF508-CFTR; design: which was then ligated into full length pNUT-CFTR linearized using Hpa1 and Pml1; expressed in transfected cells; conditions: 24 hours, BHK
Method: Experiments were performed by hand or with a robotic liquid handling system (BioRobot 8000, Qiagen, USA) using Qiagen 4.1 software. Cells were cultured in 24-well plates until they reached confluence in order to perform parallel experiments and comparison analysis. After treatment (or not) with a test compound, medium in each well was replaced with 1 ml of iodide loading buffer (in mM: 136 NaI, 3 KNO3, 2 Ca(NO3)2, 11 glucose and 20 Hepes pH 7.4) for 1 hour at 37° C. to permit the I′ to reach equilibrium. At the beginning of each experiment, the loading buffer was removed by aspiration and cells were washed eight times with efflux buffer (same as loading buffer except that NaI was replaced with 136 mM NaNO3) to remove extracellular I^− in each well. The loss of intracellular I^− was determined by removing the medium and replacing it with fresh efflux buffer every 1 min for up to 11 min. The first four aliquots were recovered at 1-minute intervals in an empty 24-well plate and used to establish a stable baseline in efflux buffer alone. A stimulation buffer (efflux buffer containing 50 μM genistein+10 μM forskolin) was then added and sampling continued with replacement by stimulation buffer. The iodide concentration of each aliquot was determined using an iodide-sensitive electrode (Orion Research Inc., Boston, Mass., USA or Ecomet) and converted to iodide content (i.e. the amount of iodide released during the 1 min interval). Curves were constructed by plotting concentration versus time. Data are presented as means±SEM.
Iodide effluxes were performed using a robotic liquid handling system (BioRobot 8000, Qiagen, Valencia, Calif.) and Qiagen 4.1 software. Cells were cultured to confluence in 24-well plates. After treatment (or not) with a test compound, the medium in each well was replaced with 1 ml of iodide loading buffer: 136 mM NaI, 3 mM KNO3, 2 mM Ca(NO3)2, 11 mM glucose, 20 mM Hepes, pH 7.4 with NaOH) and incubated for 1 h at 37° C. At the beginning of each experiment, the loading buffer was removed by aspiration and cells were washed eight times with 300 μl efflux buffer (same as loading buffer except that NaI was replaced with 136 mM NaNO3) to remove extracellular I^−. Efflux was measured by replacing the medium with 300 μl fresh efflux buffer at 1 min intervals for up to 11 min. The first four aliquots were used to establish a stable baseline, then buffer containing 10 μM forskolin+50 μM genistein was used to stimulate CFTR activity. Iodide concentration was measured in each aliquot (300 μl) using an iodide-sensitive electrode (Orion Research Inc., Boston, Mass.). Relative iodide efflux rate was calculated using the difference between maximum (peak) iodide concentration during stimulation and minimum iodide concentration before stimulation (in μM/min). […]

ΔF508-CFTR [6] = target: T1, ΔF508-CFTR; experiment: three stage ELISA of CFTR surface expression, BHK cells expressing ΔF508-CFTR; design: which was then ligated into full length pNUT-CFTR linearized using Hpa1 and Pml1; expressed in transfected cells; conditions: 10% glycerol or 1 mM sodium 4-phenylbutyrate, 24 hours
Method: Cells were screened for CFTR surface expression using a three stage ELISA system (Pierce Inc., USA). Briefly, BHK cells expressing 3HA-tagged ΔF508-CFTR were seeded in 96-well plates (Corning, USA) at 30,000 cells per well and incubated for 24 h at 37° C. Each well was treated with a test compound for 24 h, then cells were fixed in 4% paraformaldehyde solution and washed with PBS containing 0.1% bovine serum albumin and 0.05% tween-20. Cells were blocked for 1 h in solution containing 3% normal horse serum in PBS at room temperature. […] After washing four more times, the cells were exposed to 3,3′,5,5′ tetramethylbenzidine (Pierce Inc., USA) for 15 min, sulphuric acid (2M) was added, and absorbance was measured at 450 nm (Power-Wavex Bio-tek Instruments).
To determine if cell surface expression of CFTR could be quantified in a high-throughput screen using this assay, cells expressing tagged versions of wt or ΔF508-CFTR were seeded in 96-well plates, treated with 10% glycerol and monitored as light absorbance using an enzyme-linked assay system. As expected, untreated ΔF508-CFTR cells had low absorbance since they expressed little CFTR on their cell surface under control conditions (FIG. 3A).

T1 sequence (P13569 with tags, fused parts or gaps DEL508-508): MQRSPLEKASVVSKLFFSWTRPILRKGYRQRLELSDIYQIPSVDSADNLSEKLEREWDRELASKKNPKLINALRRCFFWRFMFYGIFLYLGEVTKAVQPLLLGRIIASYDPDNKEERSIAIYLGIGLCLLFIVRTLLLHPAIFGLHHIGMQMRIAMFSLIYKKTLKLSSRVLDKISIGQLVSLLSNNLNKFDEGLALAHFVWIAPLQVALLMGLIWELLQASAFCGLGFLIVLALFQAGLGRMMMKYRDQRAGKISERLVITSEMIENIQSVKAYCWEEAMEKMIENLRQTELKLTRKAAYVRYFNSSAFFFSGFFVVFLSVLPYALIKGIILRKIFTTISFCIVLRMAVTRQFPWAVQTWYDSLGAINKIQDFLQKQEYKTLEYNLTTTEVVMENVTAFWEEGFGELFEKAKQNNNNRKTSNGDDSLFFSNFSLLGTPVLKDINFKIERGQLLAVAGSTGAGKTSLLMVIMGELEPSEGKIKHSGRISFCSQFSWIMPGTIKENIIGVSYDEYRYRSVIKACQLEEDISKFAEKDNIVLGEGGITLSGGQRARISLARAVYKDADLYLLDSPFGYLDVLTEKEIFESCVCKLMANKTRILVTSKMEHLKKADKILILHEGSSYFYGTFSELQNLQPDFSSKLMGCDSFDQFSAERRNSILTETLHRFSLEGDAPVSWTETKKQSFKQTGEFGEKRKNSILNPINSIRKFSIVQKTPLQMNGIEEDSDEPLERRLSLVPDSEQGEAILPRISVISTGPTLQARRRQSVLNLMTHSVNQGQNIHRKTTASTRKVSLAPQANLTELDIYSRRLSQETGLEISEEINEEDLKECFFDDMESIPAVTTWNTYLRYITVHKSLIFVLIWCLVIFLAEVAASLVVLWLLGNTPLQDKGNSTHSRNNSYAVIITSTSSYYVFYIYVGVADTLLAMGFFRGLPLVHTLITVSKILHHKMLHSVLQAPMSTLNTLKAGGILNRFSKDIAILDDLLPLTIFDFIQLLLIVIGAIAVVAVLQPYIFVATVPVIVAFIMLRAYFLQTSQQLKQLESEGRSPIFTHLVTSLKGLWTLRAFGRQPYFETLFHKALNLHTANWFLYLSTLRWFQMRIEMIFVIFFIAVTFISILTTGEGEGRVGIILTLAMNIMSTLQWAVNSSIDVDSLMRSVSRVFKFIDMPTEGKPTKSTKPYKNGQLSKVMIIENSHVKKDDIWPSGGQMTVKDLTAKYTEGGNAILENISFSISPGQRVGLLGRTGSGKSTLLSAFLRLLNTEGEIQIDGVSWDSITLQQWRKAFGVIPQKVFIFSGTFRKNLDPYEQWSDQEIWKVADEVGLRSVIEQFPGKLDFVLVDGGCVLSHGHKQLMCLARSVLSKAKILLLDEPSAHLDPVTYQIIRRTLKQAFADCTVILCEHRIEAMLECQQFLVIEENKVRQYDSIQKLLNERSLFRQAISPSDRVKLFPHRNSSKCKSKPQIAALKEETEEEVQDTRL
T2 sequence (P13569 with tags, fused parts or gaps DEL508-508): as above

| Compound | hit in screen (class letter) (ΔF508-CFTR [1]) | hit in screen (score) (ΔF508-CFTR [1]) | % YFP quench (F508del CFTR) [%] | also measured |
| --- | --- | --- | --- | --- |
| COc1ccc(S(=O)(=O)N2CCN(C(C)c3nc(OC4CCCCC4)c4ccccc4n3)CC2)cc1 (centres unmarked) [VRT325] | – | – | – | ΔF508-CFTR surface expression increase, normalized to BHK cells expressing wild-type CFTR (ΔF508-CFTR [1]; 10 μM, 24 h, compared with vehicle alone): 36%; functional correction in YFP quenching assay (F508del CFTR): somewhat larger YFP-quenching response; forskolin+genistein-stimulated Isc (ΔF508-CFTR [2]): not different from vehicle controls |
| CCCc1nn(C)c2c(=O)[nH]c(-c3cc(S(=O)(=O)N4CCN(C)CC4)ccc3OCC)nc12 [sildenafil] | – | – | – | signal in the trafficking assay (ΔF508-CFTR [1]; Microsource Discovery library, medium and weak hits, 20 μM, 24 hours): consistently elevated signal; increase in the intensity of the mature band C (ΔF508-CFTR [3]): 30%; iodide efflux (ΔF508-CFTR [4]): negative result; cAMP-stimulated iodide efflux (ΔF508-CFTR [5]; 10 μM pretreatment): did not restore a strong cAMP-stimulated iodide efflux responses; also recorded: did not produce significant iodide efflux; cAMP-stimulated iodide efflux (ΔF508-CFTR [5]; 1 mM): strong cAMP-stimulated iodide efflux was detected; also recorded: function was detected |
| O=C([O-])CCCc1ccccc1.[Na+] [sodium 4-phenylbutyrate] | – | – | – | increase in signal, suitability as positive control for the corrector assay screen (ΔF508-CFTR [1]; kifunesine 100 μM, Sodium 4 Phenylbutyrate 1 mM, curcumin 40 μM, 24 hours): not sufficient to act as a positive control; plasma membrane signal (absorbance), words (ΔF508-CFTR [6]): increased the plasma membrane signal |
| Cyanocobalamin | W (Medium and weak hits were defined as compounds giving a cell fluorescence signal that was between 2 and 3 or 1 and 2 standard deviations, respectively, above untreated control wells) | 1.1 | 100 | functional correction in YFP quenching assay (F508del CFTR): not functional |
| Cytisine (−) | M (Medium and weak hits were defined as compounds giving a cell fluorescence signal that was between 2 and 3 or 1 and 2 standard deviations, respectively, above untreated control wells) | 2.0 | 97 | – |
| Oubinidine | W (Medium and weak hits were defined as compounds giving a cell fluorescence signal that was between 2 and 3 or 1 and 2 standard deviations, respectively, above untreated control wells) | 1.2 | 104 | – |
| Terbutaline hemisulfate | W (Medium and weak hits were defined as compounds giving a cell fluorescence signal that was between 2 and 3 or 1 and 2 standard deviations, respectively, above untreated control wells) | 1.3 | 100 | – |
